Paper PMC6707405, “Screening Bioactive Compounds of Siraitia grosvenorii by Immobilized β2-Adrenergic Receptor Chromatography and Druggability Evaluation” (Frontiers in Pharmacology, 2019)
Read-outs that look alike come from different tables or passages of the source.

Legend:
ileum and trachea = test system: ileum and trachea; set-up: method as in Liu et al., 2007; settings: histamine-induced; ref Liu et al., 2007; cited from earlier work
[1] = test system: rat tracheal smooth muscle pre-contracted by high K+ solution; test: Relaxation of isolated rat tracheal strips pre-contracted by high K+ solution, with or without ICI 118551; type: cell-based; settings: 0.1 μM to 1.0 mM, high K+ (60 mM) pre-contracted
Method: The potential β2-AR-mediating relaxant mechanisms of the compound were also evaluated in the absence and presence of a specific inhibitor. This was performed with the scarification of rats weighing 250–300 g by exsanguination from the abdominal aorta. We collected the tracheal tissues between the larynx and the lungs and immediately immersed them in cold oxygenated Krebs solution (118 mM NaCl, 4.8 mM KCl, 2.5 mM CaCl2, 1.2 mM MgSO4, 25 mM NaHCO3, 1.2 mM KH2PO4, and 9.8 mM glucose; pH 7.4). After the removal of adhesive tissues, we spirally isolated the tracheal segment with three cartilage rings to assay the tracheal strip reactivity. Such strips were mounted onto two L-shaped stainless-steel holders connected with a force–displacement transducer. The isometric tension was determined in a tissue bath by a PowerLab data acquisition system.
We aerated the pre-warmed Krebs solution (37°C) with a gas mixture of 95% O2 and 5% CO2. At initial tests, the tracheal strips with tensions of 1.0-g mass were equilibrated for 60 min. The resulting strips were stimulated with high-potassium (K^+) solution (63 mM NaCl, 60 mM KCl, 2.5 mM CaCl2, 1.2 mM MgSO4, 25 mM NaHCO3, 1.2 mM KH2PO4, and 9.8 mM glucose; pH 7.4) to evoke a contractile response in the presence or absence of ICI 118551 (10 μM). […]

mice trachea = test system: mice trachea; set-up: method as in Liu et al., 2007; settings: ref Liu et al., 2007; cited from earlier work
[2] = Pharmacokinetic study in rats after oral administration (HPLC-MS/MS); type: in vivo, Sprague–Dawley (SD) rats; settings: mogroside V 200 mg/kg or LHG extract 12.5 ml/kg
Method: Male Sprague–Dawley (SD) rats (240 ± 20 g) were purchased from the Experimental Animal Center of Xi’an Jiaotong University (Xi’an, China). The animals were maintained in a room under controlled temperature (24 ± 1°C) and humidity (50–70%) with 12-h light/dark cycle. The rats were fed with standard laboratory food and acclimatized to the environment for a week before the experiment. All animals were treated in accordance with the Guide for the Care and Use of Laboratory Animals under the approval of the Animal Experimentation Ethics Committee at Northwest University.
All the plasma samples were analyzed on an Inertsil ODS-3-C18 column (5 μm, 4.6 mm × 150 mm). The mobile phase for quantitative determination of mogroside V in rat plasma consisted of 29% acetonitrile/0.2% (v/v) formic acid at a flow rate of 0.6 ml/min. The injection volume was 20 μl under a detection wavelength of 203 nm.
The optimized mass conditions include the following: capillary voltage of 3,500 V, drying gas of 8 L/min at 350°C, nebulizer pressure of 40 psi at 350°C, and ion scan range of 100–2,000 amu. Under these conditions, multi-reaction monitoring (MRM) mode was carried out to specifically and sensitively detect the mogroside V. The mass transitions were m/z 1,285.6 → 1,123.6 for mogroside V and m/z 931.3 → 637.5 for IS (notoginsenoside R1).
An aliquot of 10 μl of IS working solution was added into an aliquot of 90 μl of plasma samples. Vortexing the mixture for 2.0 min, we centrifuged the plasma for 10 min with a speed of 12,000 rpm at a temperature of 4°C. The supernatant was collected and transferred to another 0.5-ml centrifuge tube and then blow dried with nitrogen. We applied 200 μl of methanol to redissolve it, which was used for analysis.
Eighteen rats were randomly divided into three groups of six for each group, including blank control, mogroside V, and LHG groups. The blank group was orally administered with normal saline. The other two groups were administered with mogroside V at a dose of 200 mg/kg and LHG aqueous extraction at a dose of 12.5 ml/kg (equivalent to 200 mg/kg mogroside V). Blood samples were collected in heparin sodium vacutainers at post-dose 5, 15, 30, 45, 60, 90, 120, 240, 360, 480, and 720 min. The plasma was pre-treated by centrifugation and frozen at −80°C until further analysis. The pharmacokinetic parameters including the area under curve (AUC0–720, and AUC0–∞), the maximum plasma concentration (Cmax), the time to achieve maximum plasma concentration (T max), and the elimination half-life (t 1/2z) were calculated by Drug and Statistics 3.0.0 software (DAS, T. C. M., Shanghai, China). All data were recorded as the mean ± standard deviation (SD), and the 95% confidence interval was also estimated when necessary.

immobilized β2-AR = immobilized β2-AR (Homo sapiens, UniProt P07550)
Chain of immobilized β2-AR (P07550 whole entry): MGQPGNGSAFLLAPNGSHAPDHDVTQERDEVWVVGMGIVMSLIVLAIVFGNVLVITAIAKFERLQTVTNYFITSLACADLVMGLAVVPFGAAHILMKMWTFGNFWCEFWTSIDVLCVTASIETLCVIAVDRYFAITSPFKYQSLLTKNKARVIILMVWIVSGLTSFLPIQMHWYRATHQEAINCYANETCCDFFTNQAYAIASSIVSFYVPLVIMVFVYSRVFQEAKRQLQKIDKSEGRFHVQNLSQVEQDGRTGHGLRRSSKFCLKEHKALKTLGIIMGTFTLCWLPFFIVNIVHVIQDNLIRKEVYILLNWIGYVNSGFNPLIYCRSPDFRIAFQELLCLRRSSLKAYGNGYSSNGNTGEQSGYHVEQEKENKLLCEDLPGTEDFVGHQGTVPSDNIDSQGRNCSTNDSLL

[3] = dose 200 mg/kg, ref Qin et al. (2006); cited from earlier work
[4] = Stability of mogroside V in rat plasma (QC samples, HPLC-MS/MS); type: in vitro ADME; settings: for Short term Stability (%): room temperature 14 h; for Long term Stability (%): −20°C 1 month; for Freeze–thaw Stability (%): three freeze (−20°C) and thaw cycles
Method: The stability of mogroside V in plasma was evaluated at three QC levels in six replicates under varieties of storing and processing conditions. The results of the peak area of QC samples were compared with those from freshly prepared standard samples. The QC samples with recoveries of 85–115% were defined as having good stability under the desired conditions. Short-term stability was assessed after QC samples were saved at room temperature for 14 h. Subsequently, freeze–thaw stability was assessed after three freeze (−20°C) and thaw (room temperature) cycles of QC samples. Long-term stability was examined after QC samples were saved at −20°C for 1 month.

cough of mice = settings: ref Liu et al., 2007; cited from earlier work
[5] = cited from earlier work
[6] = male, Sprague-Dawley, rat, in vivo, mogroside V in plasma

## C[C@H](CC[C@@H](O[C@@H]1O[C@H](CO[C@@H]2O[C@H](CO)[C@@H](O)[C@H](O)[C@H]2O)[C@@H](O)[C@H](O)[C@H]1O[C@@H]1O[C@H](CO)[C@@H](O)[C@H](O)[C@H]1O)C(C)(C)O)[C@H]1CC[C@@]2(C)[C@@H]3CC=C4[C@@H](CC[C@H](O[C@@H]5O[C@H](CO[C@@H]6O[C@H](CO)[C@@H](O)[C@H](O)[C@H]6O)[C@@H](O)[C@H](O)[C@H]5O)C4(C)C)[C@]3(C)[C@H](O)C[C@]12C [Mogroside V]
Ileum and trachea
  spasmodic contraction of the ileum and trachea caused by histamine: obvious capability to antagonize
[1]; absence of ICI 118551
  relaxation of tracheal strips: concentration-dependent manner
[1]; presence of ICI 118551 (10 μM)
  relaxation of tracheal strips: disappeared
Mice trachea
  phenol red excretion of mice trachea: effective for extending
[2]; [6]
  Cmax: 1330 ng/mL
  Tmax: 45 min
[2]; male, Sprague-Dawley, rat, in vivo, mogroside V in plasma, read-out: t1/2z
  half-life: 138 ± 13.2 min
[2]
  peak plasma concentration: 1,330.6 ± 132.2 ng/ml
Immobilized β2-AR; ammonium acetate buffer (5 mM, pH = 7.4), 0.2 ml/min, 203 nm, void time 0.7 min
  retention time of LHG extract peak on immobilized β2-AR column, identified as mogroside V: 4.3 min
[3]
  toxicity after oral administration: nontoxic
[4]; rat plasma, 30 ng/ml added
  Short term Stability (%): 94.8%
  Long term Stability (%): 94.4%
[4]; rat plasma, 500 ng/ml added
  Short term Stability (%): 94.8%
  Freeze–thaw Stability (%): 95.4%
  Long term Stability (%): 93.8%
[4]; rat plasma, 5,000 ng/ml added
  Short term Stability (%): 93.2%
  Freeze–thaw Stability (%): 96.6%
  Long term Stability (%): 92.2%
Cough of mice
  cough times of mice: reducing the cough times
  incubation period for cough of mice: prolonged
[5]; oral administration, dose increased to 5 mg/kg, ref Luo, 2017
  detection in rat plasma: disappears
[5]; tail intravenous injection (1.12 or 2.0 mg/kg) and intraperitoneal administration (1.12 mg/kg), ref Zhou et al., 2018
  detection in rat plasma: detectable

## O=N[O-].[Na+] [sodium nitrite, Sodium nitrite]
Immobilized β2-AR
  retention time on immobilized β2-AR column: 0.7 min

## COc1cc2nc(N3CCN(C(=O)C4CCCO4)CC3)nc(N)c2cc1OC (stereo not drawn) [terazosin]
Immobilized β2-AR; mobile phase ammonium acetate (5 mM, pH = 7.4), each injected three times
  retention time on immobilized β2-AR column: 1.0 min
